Values quoted from earlier work, collected in publication PMC7751758, “Repurposing Sigma-1 Receptor Ligands for COVID-19 Therapy?” (Frontiers in Pharmacology, 2020).

Tested on: SARS-CoV
Settings: mouse, in vivo

SMILES	clinical disease	virus replication in lungs
CCN(CC)CCCC(C)Nc1ccnc2cc(Cl)ccc12 (stereo not shown) [Chloroquine]	did protect mice from clinical disease	did not inhibit virus replication in lungs
CN(C)CCCN1c2ccccc2Sc2ccc(Cl)cc21 [Chlorpromazine]	did protect mice from clinical disease	did not inhibit virus replication in lungs
